Columns and labels:
[1] = molecular target: human PTPN2 (1-387) (Homo sapiens (Human), UniProt P17706); assay: Human PTPN2 Biochemical Assay; details: DiFMUP substrate
Method in brief: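 Human PTPN2 (1-387) preincubated 30 min at RT with compound (10-point 3-fold series) in Tris pH 7.4 buffer with 0.5 mM DTT, then DiFMUP substrate added for 1 h at RT. Fluorescence at ex 360/em 460 nm, normalised to no-enzyme and enzyme controls; EC50 from 4-parameter fit.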

[2] = molecular target: human PTPN1 (1-435) (Homo sapiens (Human), UniProt P18031); assay: Human PTPN1 Biochemical Assay; details: DiFMUP substrate, read-out: PTP1B IC50
Sequence of human PTPN1 (1-435) (P18031 whole entry): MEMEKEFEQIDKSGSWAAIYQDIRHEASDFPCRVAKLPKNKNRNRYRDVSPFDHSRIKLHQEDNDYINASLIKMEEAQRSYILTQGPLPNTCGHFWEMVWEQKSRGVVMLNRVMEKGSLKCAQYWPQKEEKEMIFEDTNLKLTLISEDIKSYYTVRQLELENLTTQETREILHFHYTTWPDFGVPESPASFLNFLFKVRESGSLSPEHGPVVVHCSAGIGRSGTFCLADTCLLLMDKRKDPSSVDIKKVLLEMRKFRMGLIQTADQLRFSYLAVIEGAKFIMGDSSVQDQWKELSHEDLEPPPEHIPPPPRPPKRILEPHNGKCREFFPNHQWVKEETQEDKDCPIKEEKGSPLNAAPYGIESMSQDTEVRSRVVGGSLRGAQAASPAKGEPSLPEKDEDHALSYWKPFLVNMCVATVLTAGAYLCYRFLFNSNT
Method in brief: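 Read-out is DiFMUP hydrolysis fluorescence (360 nm excitation, 460 nm emission) after 1 h at room temperature, following 30 min enzyme–compound preincubation.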

Sequence of human PTPN2 (1-387) (P17706 other isoform, or with tags, fused parts or gaps): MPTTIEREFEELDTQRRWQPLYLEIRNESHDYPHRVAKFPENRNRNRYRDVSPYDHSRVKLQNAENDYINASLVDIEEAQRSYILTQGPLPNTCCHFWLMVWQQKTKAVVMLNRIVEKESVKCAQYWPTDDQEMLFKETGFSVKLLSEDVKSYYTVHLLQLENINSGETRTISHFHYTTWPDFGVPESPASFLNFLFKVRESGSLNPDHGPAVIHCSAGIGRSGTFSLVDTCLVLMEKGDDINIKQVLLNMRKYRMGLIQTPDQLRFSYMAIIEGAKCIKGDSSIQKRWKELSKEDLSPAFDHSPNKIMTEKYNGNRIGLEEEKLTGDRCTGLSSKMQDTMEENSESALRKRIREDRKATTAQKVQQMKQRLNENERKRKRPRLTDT

Row | IC50 [1] [nM] | IC50 [2] [nM] | Structure (SMILES)
1 | 64.5 | 42 | NC(=O)c1cc(OCC2CC3(CCC3)C2)c2sc(C(F)(F)P(=O)(O)O)c(Br)c2c1 [Compound 284]
2 | 77.9 | 45 | NC(=O)c1cc(OCCCCC(F)(F)C(F)(F)F)c2sc(C(F)(F)P(=O)(O)O)c(Br)c2c1 [Compound 285]
3 | 76.9 | 40 | NC(=O)c1cc(OCCC2CC2(F)F)c2sc(C(F)(F)P(=O)(O)O)c(Br)c2c1 (stereo not drawn) [Compound 286]
4 | 45.3 | 16 | NC(=O)c1cc(OCC2C3CC4C(C3)C24)c2sc(C(F)(F)P(=O)(O)O)c(Br)c2c1 (stereo not drawn) [Compound 287]
5 | 6.86 | 7.3 | N#CC1(c2ccc(COc3cc(C(N)=O)cc4c(Br)c(C(F)(F)P(=O)(O)O)sc34)cc2)CC1 [Compound 288]
6 | 63.2 | 53.6 | CC[C@@H]1C[C@H]1COc1cc(C(N)=O)cc2c(Br)c(C(F)(F)P(=O)(O)O)sc12 [Compound 289]
7 | 9.74 | 11 | NC(=O)c1cc(OCC23COC(CF)(C2)C3)c2sc(C(F)(F)P(=O)(O)O)c(Br)c2c1 [Compound 290]
8 | 78.6 | 49 | CC1(C)CC(COc2cc(C(N)=O)cc3c(Br)c(C(F)(F)P(=O)(O)O)sc23)C1 [Compound 292]
9 | 619 | 246 | NC(=O)c1cc(OCCC23CC(C2)C3)c2sc(C(F)(F)P(=O)(O)O)c(Br)c2c1 [Compound 293]
10 | 80.7 | 38 | NC(=O)c1cc(OCC2C(F)(F)C23CCC3)c2sc(C(F)(F)P(=O)(O)O)c(Br)c2c1 (stereo not drawn) [Compound 294]
11 | 38.9 | 38 | NC(=O)c1cc(OCC2CC(C3CC3)C2)c2sc(C(F)(F)P(=O)(O)O)c(Br)c2c1 (stereo not drawn) [Compound 295]
12 | 26500 | 7350 | N#Cc1ccc2cc(C(F)(F)P(=O)(O)O)sc2c1Br [Compound 297, ((7-bromo-6-cyanobenzo[b]thiophen-2-yl)difluoromethyl)phosphonic acid]
13 | 21600 | 11700 | O=P(O)(O)C(F)(F)c1sc2cc(Br)ccc2c1Br [Compound 298, ((3,6-dibromobenzo[b]thiophen-2-yl)difluoromethyl)phosphonic acid]
14 | 17100 | 8980 | N#Cc1ccc2c(Br)c(C(F)(F)P(=O)(O)O)sc2c1 [Compound 299, ((3-bromo-6-cyanobenzo[b]thiophen-2-yl)difluoromethyl)phosphonic acid]
15 | 16900 | 7330 | NC(=O)c1ccc2c(Br)c(C(F)(F)P(=O)(O)O)sc2c1 [Compound 300, ((3-bromo-6-carbamoylbenzo[b]thiophen-2-yl)difluoromethyl)phosphonic acid]
16 | 17000 | 12900 | N#Cc1ccc2c(C#N)c(C(F)(F)P(=O)(O)O)sc2c1 [Compound 301, ((3,6-dicyanobenzo[b]thiophen-2-yl)difluoromethyl)phosphonic acid]
17 | 24700 | 2690 | O=C(Nc1ccc2c(Br)c(C(F)(F)P(=O)(O)O)sc2c1)c1ccccc1 [Compound 303, ((6-benzamido-3-bromobenzo[b]thiophen-2-yl)difluoromethyl)phosphonic acid]
18 | 8.9 | 9.8 | [2H]C([2H])([2H])NC(=O)c1cc(OCCCS(C)(=O)=O)c2sc(C(F)(F)P(=O)(O)O)c(Br)c2c1 [Compound 304]
19 | 7.6 | 8.6 | CCNC(=O)c1cc(OCCCS(C)(=O)=O)c2sc(C(F)(F)P(=O)(O)O)c(Br)c2c1 [Compound 305]
20 | 16.4 | 25.7 | CC(C)(O)CCCOc1cc(C(N)=O)cc2c(Br)c(C(F)(F)P(=O)(O)O)sc12 [Compound 306]
21 | 65 | 57.5 | CC(C)=CCCOc1cc(C(N)=O)cc2c(Br)c(C(F)(F)P(=O)(O)O)sc12 [Compound 307]
22 | 25.2 | 23.4 | NC(=O)c1cc(OCCCCS(N)(=O)=O)c2sc(C(F)(F)P(=O)(O)O)c(Br)c2c1 [Compound 308]
23 | 68.5 | 77.7 | NC(=O)c1cc(C#CCCS(N)(=O)=O)c2sc(C(F)(F)P(=O)(O)O)c(Br)c2c1 [Compound 310]
24 | 120 | 140 | NC(=O)c1cc(CCCCS(N)(=O)=O)c2sc(C(F)(F)P(=O)(O)O)c(Br)c2c1 [Compound 311]
25 | 71.2 | 79.1 | NC(=O)c1cc(NCCCS(N)(=O)=O)c2sc(C(F)(F)P(=O)(O)O)c(Br)c2c1 [Compound 312]
26 | 132 | 146 | NC(=O)c1cc(CCc2ccccc2)c2sc(C(F)(F)P(=O)(O)O)c(Br)c2c1 [Compound 313]
27 | 21.8 | 23.4 | NC(=O)c1cc(OCC2CC2(F)F)c2sc(C(F)(F)P(=O)(O)O)c(Br)c2c1 (stereo not drawn) [Compound 315]

Row | IC50 [1] [nM] | IC50 [2] [nM] | Structure (SMILES)
28 | 50.4 | 68.1 | NC(=O)c1cc(OCC2CC2(F)F)c2sc(C(F)(F)P(=O)(O)O)c(Br)c2c1 (stereo not drawn) [Compound 316]
29 | 68.5 | 68.4 | NC(=O)c1cc(OCCC2CCC2)c2sc(C(F)(F)P(=O)(O)O)c(Br)c2c1 [Compound 317]
30 | 34.8 | 52.6 | CS(=O)(=O)CCCCOc1cc(C(N)=O)cc2c(Br)c(C(F)(F)P(=O)(O)O)sc12 [Compound 318]
31 | 9.67 | 9.2 | CNC(=O)c1cc(OCCCS(C)(=O)=O)c2sc(C(F)(F)P(=O)(O)O)c(Br)c2c1 [Compound 319]
32 | 6.81 | 7.5 | CNC(=O)c1cc(OCCCS(N)(=O)=O)c2sc(C(F)(F)P(=O)(O)O)c(Br)c2c1 [Compound 320]
33 | 24.1 | 25.1 | CNC(=O)c1cc(OCC2CC2(F)F)c2sc(C(F)(F)P(=O)(O)O)c(Br)c2c1 (stereo not drawn) [Compound 321]
34 | 29.2 | 20.9 | CNC(=O)c1cc(OCCC2CC2(F)F)c2sc(C(F)(F)P(=O)(O)O)c(Br)c2c1 (stereo not drawn) [Compound 322]
35 | 55.4 | 44 | CNC(=O)c1cc(OCCCNS(C)(=O)=O)c2sc(C(F)(F)P(=O)(O)O)c(Br)c2c1 [Compound 323]
36 | 29.9 | 41 | CNC(=O)c1cc(OCCCCS(C)(=O)=O)c2sc(C(F)(F)P(=O)(O)O)c(Br)c2c1 [Compound 324]
37 | 385 | 183 | CNC(=O)c1cc(OCCC(C)(F)F)c2sc(C(F)(F)P(=O)(O)O)c(Br)c2c1 [Compound 325]
38 | 16.1 | 2.5 | CNC(=O)c1cc(OCCCC(C)(F)F)c2sc(C(F)(F)P(=O)(O)O)c(Br)c2c1 [Compound 326]
39 | 266 | 233 | CC(F)(F)CCOc1cc(C(N)=O)cc2c(Br)c(C(F)(F)P(=O)(O)O)sc12 [Compound 327]
40 | 7.83 | 7.9 | N#CCCNC(=O)c1cc(OCCCS(N)(=O)=O)c2sc(C(F)(F)P(=O)(O)O)c(Br)c2c1 [Compound 328]
41 | 14.1 | 18.1 | N#CCCNC(=O)c1cc(OCCCC(F)(F)F)c2sc(C(F)(F)P(=O)(O)O)c(Br)c2c1 [Compound 329]
42 | 10.4 | 9.2 | CS(=O)(=O)CCCOc1cc(C(=O)NCCC#N)cc2c(Br)c(C(F)(F)P(=O)(O)O)sc12 [Compound 330]
43 | 23.8 | 28.8 | NC(=O)c1cc(OCCCC2(O)CC2)c2sc(C(F)(F)P(=O)(O)O)c(Br)c2c1 [Compound 331]
44 | 28.1 | 29.9 | CCC(=O)CCCOc1cc(C(N)=O)cc2c(Br)c(C(F)(F)P(=O)(O)O)sc12 [Compound 332]
45 | 42.1 | 37 | CS(=O)(=O)CCCOc1cc(C(N)=O)cc2c(Cl)c(C(F)(F)P(=O)(O)O)sc12 [Compound 333]
46 | 77.7 | 65.8 | NC(=O)c1cc(OCCCNS(=O)(=O)C(F)(F)F)c2sc(C(F)(F)P(=O)(O)O)c(Br)c2c1 [Compound 334]
47 | 4.4 | 5.4 | NC(=O)c1cc(OCCCC2(S(N)(=O)=O)CC2)c2sc(C(F)(F)P(=O)(O)O)c(Br)c2c1 [Compound 335]
48 | 88.6 | 160 | NC(=O)c1cc(OCc2ccc(F)cc2C(F)(F)F)c2sc(C(F)(F)P(=O)(O)O)c(Br)c2c1 [Compound 336]
49 | 83.3 | 158 | Cc1ccc(COc2cc(C(N)=O)cc3c(Br)c(C(F)(F)P(=O)(O)O)sc23)c(C)c1 [Compound 337]
50 | 51.2 | 74.4 | NC(=O)c1cc(OCc2ccc(C(F)(F)F)cc2F)c2sc(C(F)(F)P(=O)(O)O)c(Br)c2c1 [Compound 338]
51 | 24.4 | 45.3 | NC(=O)c1cc(OCc2ccc(OC(F)(F)F)cc2)c2sc(C(F)(F)P(=O)(O)O)c(Br)c2c1 [Compound 339]
52 | 116 | 283 | NC(=O)c1cc(OCc2ccc(C(F)(F)F)cc2C(F)(F)F)c2sc(C(F)(F)P(=O)(O)O)c(Br)c2c1 [Compound 340]
53 | 46.7 | 94.3 | N#Cc1cc(Cl)ccc1COc1cc(C(N)=O)cc2c(Br)c(C(F)(F)P(=O)(O)O)sc12 [Compound 341]
54 | 75.1 | 131 | NC(=O)c1cc(OCc2ccc(F)cc2OC(F)F)c2sc(C(F)(F)P(=O)(O)O)c(Br)c2c1 [Compound 342]

Row | Structure (SMILES) | IC50 [1] [nM] | IC50 [2] [nM]
55 | NC(=O)c1cc(OCCC(F)(F)C(F)(F)C(F)F)c2sc(C(F)(F)P(=O)(O)O)c(Br)c2c1 [Compound 291] | 26.8 | 21
56 | CC(C)(O)CCOc1ccc2c(Br)c(C(F)(F)P(=O)(O)O)sc2c1 [Compound 302, ((3-bromo-6-(3-hydroxy-3-methylbutoxy)benzo[b]thiophen-2-yl)difluoromethyl)phosphonic acid] | 43700 | 37900
57 | C[Si](C)(C)CCc1cc(C(N)=O)cc2c(Br)c(C(F)(F)P(=O)(O)O)sc12 [Compound 314] | 52.6 | 47.5

Source: patent US20250059220A1, “SUBSTITUTED BENZOTHIOPHENE DERIVATIVES AND METHODS OF USE THEREOF” (Merck Sharp & Dohme LLC, priority 2021, published 2025)
